From patent US6410686B1, “Galanin receptor 2 protein” (Bayer Corporation, priority 1996, dated 2002) come the findings set out here.

pIC50: −log10 of the molar value. Like-named read-outs stand apart in the source and are kept apart here. Residues, ends and D or L forms follow the SMILES beside them.

Experiment [1] has as its target T1, Rat GalR2 [clone Y107] (Rattus norvegicus, UniProt O08726).
T1 construct: expressed in transfected cells; host or cells: COS-7 (monkey kidney), transient, pcDNA3 clone from a rat hypothalamus cDNA library; membranes
T1 sequence (O08726 1-372): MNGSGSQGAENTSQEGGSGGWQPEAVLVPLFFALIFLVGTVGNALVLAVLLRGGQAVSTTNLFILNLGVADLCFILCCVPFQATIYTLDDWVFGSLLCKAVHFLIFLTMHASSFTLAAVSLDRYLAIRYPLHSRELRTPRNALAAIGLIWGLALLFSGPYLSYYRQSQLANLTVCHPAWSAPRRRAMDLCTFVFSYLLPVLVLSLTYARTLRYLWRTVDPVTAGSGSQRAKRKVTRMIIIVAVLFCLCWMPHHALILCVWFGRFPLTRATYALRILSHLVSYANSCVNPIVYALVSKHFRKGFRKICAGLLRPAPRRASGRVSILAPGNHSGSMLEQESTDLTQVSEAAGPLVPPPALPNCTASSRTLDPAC
Briefly: [125I]hGalanin competition binding, membranes of COS-7 cells transiently expressing rat GalR2 clone Y107. As to the method:
(§1) 15 μg of DNA and 90 μl of lipofectamine were added to each flask. Media was replaced 24 hours post transfection, and membranes were harvested 24 hours later.
(§2) The media was removed from each flask of transfected cells, and the cells were washed twice with 20 ml ice-cold phosphate buffered saline. The cells were scraped from the flask in 5 ml of Tris buffer (20 mM Tris-HCl, 5 mM EDTA, pH 7.7), and then transferred to a centrifuge tube. Each flask was rinsed with an additional 5 ml of Tris buffer, and combined in the centrifuge tube. The cells were homogenized in a Polytron PT-3000 (Brinkman Instruments, Mill Valley, N.Y.) for 2×10 seconds ([…], 7000-8000 rpm) and centrifuged at 20,000×g for 30 minutes at 4° C. The pellet was resuspended in fresh Tris buffer, and centrifuged again at 20,000×g for 30 minutes at 4° C. Protein concentration was measured using the Bio-Rad kit according to the standard manufacturer's protocol (Bio-Rad Laboratories (Hercules, Calif.) 500-0001) using bovine IgG as the standard.
(§3) The binding assays were performed on 96-well plates (GF/C Millipore Corp., Bedford, MA PN MAFC NOB 50) pretreated with 0.3% polyethylenimine (PEI) for at least 3 hours prior to use. The PEI was aspirated from the plates on a vacuum manifold, and the wells were rinsed with 200 μl of ice-cold binding buffer (25 mM Tris, 10 mM MgCl2, 0.1% BSA, pH 7.4) immediately before samples were added to the wells. […] Samples were incubated for 90 minutes at room temperature with constant shaking. To terminate the reaction, samples were aspirated on a vacuum manifold and rinsed with 3×200 μl ice-cold buffer. Samples were then counted on a gamma counter to quantitate the amount of radioactivity. […] (West Haven, Conn.). All other peptides were purchased from either Peninsula (Belmont, Calif.) or Bachem (Torrance, Calif.).
(§4) Peptide species are indicated with the following prefixes: r≡rat, h≡human.

Experiment [2] addresses T2, Rat GalR1 [cloned] (Rattus norvegicus, UniProt Q62805).
T2 construct: expressed in transfected cells; host or cells: COS-7 (monkey kidney), transient; membranes
T2 sequence (Q62805 1-346): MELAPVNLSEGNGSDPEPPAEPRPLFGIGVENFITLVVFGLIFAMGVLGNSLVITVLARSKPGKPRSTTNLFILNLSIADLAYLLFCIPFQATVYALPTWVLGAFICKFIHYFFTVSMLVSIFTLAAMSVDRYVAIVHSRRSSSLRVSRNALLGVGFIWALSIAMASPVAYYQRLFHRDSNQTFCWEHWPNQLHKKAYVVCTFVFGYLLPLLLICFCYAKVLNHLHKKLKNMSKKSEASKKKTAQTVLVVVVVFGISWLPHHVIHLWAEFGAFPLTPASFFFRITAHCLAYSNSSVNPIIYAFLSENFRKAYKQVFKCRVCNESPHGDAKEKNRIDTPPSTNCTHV
The experiment can be described thus: [125I]hGalanin competition binding, membranes of COS-7 cells transiently expressing rat GalR1. On the procedure: as §1, §2, §3, §4

Where [3] appears, read: 50 pM [125I]hGalanin, COS-7 membranes, 90 minutes at room temperature, average (individual values) or single experiment, read-out: Rat GalR2 [clone Y107] IC50 value.
Where [4] appears, read: 50 pM [125I]hGalanin, COS-7 membranes, 90 minutes at room temperature, average ± SEM, or average (individual values), read-out: Rat GalR1 [cloned] IC50 value.

Take `CC[C@H](C)[C@H](NC(=O)[C@H](C)NC(=O)[C@H](Cc1c[nH]cn1)NC(=O)[C@@H]1CCCN1C(=O)CNC(=O)[C@H](CC(C)C)NC(=O)[C@H](CC(C)C)NC(=O)[C@H](Cc1ccc(O)cc1)NC(=O)CNC(=O)[C@H](C)NC(=O)[C@H](CO)NC(=O)[C@@H](N)CC(N)=O)C(=O)N[C@@H](CC(=O)O)C(=O)N[C@@H](CC(N)=O)C(=O)N[C@@H](Cc1c[nH]cn1)C(=O)N[C@@H](CCCNC(=N)N)C(=O)N[C@@H](CO)C(=O)N[C@@H](Cc1ccccc1)C(=O)N[C@@H](CO)C(=O)N[C@@H](CC(=O)O)C(=O)N[C@@H](CCCCN)C(=O)N[C@@H](Cc1c[nH]cn1)C(=O)NCC(=O)N[C@@H](CC(C)C)C(=O)N[C@H](C(N)=O)[C@@H](C)O` [r(5-29)galanin] (H-NSAGYLLGPHAIDNHRSFSDKHGLT-NH2; N-terminus and C-terminus assumed): the pIC50 in experiment [1] (setting [3]) and in experiment [2] (setting [4]) was below 6.00 throughout.

As to `CC[C@H](C)[C@H](NC(=O)[C@H](C)NC(=O)[C@H](Cc1c[nH]cn1)NC(=O)[C@@H]1CCCN1C(=O)CNC(=O)[C@H](CC(C)C)NC(=O)[C@H](CC(C)C)NC(=O)[C@H](Cc1ccc(O)cc1)NC(=O)CNC(=O)[C@H](C)NC(=O)[C@H](CO)NC(=O)[C@H](CC(N)=O)NC(=O)[C@H](CC(C)C)NC(=O)[C@@H](N)[C@@H](C)O)C(=O)N[C@@H](CC(=O)O)C(=O)N[C@@H](CC(N)=O)C(=O)N[C@@H](Cc1c[nH]cn1)C(=O)N[C@@H](CCCNC(=N)N)C(=O)N[C@@H](CO)C(=O)N[C@@H](Cc1ccccc1)C(=O)N[C@@H](CO)C(=O)N[C@@H](CC(=O)O)C(=O)N[C@@H](CCCCN)C(=O)N[C@@H](Cc1c[nH]cn1)C(=O)NCC(=O)N[C@@H](CC(C)C)C(=O)N[C@H](C(N)=O)[C@@H](C)O` [r(3-29)galanin], the pIC50 in experiment [1] and in experiment [2] was below 6.00 throughout.

Regarding `CC[C@H](C)[C@H](NC(=O)[C@H](C)NC(=O)[C@H](Cc1c[nH]cn1)NC(=O)[C@@H]1CCCN1C(=O)CNC(=O)[C@H](CC(C)C)NC(=O)[C@@H](N)CC(C)C)C(=O)N[C@@H](CC(=O)O)C(=O)N[C@@H](CC(N)=O)C(=O)N[C@@H](Cc1c[nH]cn1)C(=O)N[C@@H](CCCNC(=N)N)C(=O)N[C@@H](CO)C(=O)N[C@@H](Cc1ccccc1)C(=O)N[C@@H](CO)C(=O)N[C@@H](CC(=O)O)C(=O)N[C@@H](CCCCN)C(=O)N[C@@H](Cc1c[nH]cn1)C(=O)NCC(=O)N[C@@H](CC(C)C)C(=O)N[C@H](C(N)=O)[C@@H](C)O` [r(10-29)galanin] (H-LLGPHAIDNHRSFSDKHGLT-NH2; N-terminus and C-terminus assumed), the pIC50 in experiment [1] (setting [3]) and in experiment [2] (setting [4]) was below 6.00 each time.

As to `CC[C@H](C)[C@H](NC(=O)[C@H](C)NC(=O)[C@H](Cc1c[nH]cn1)NC(=O)[C@@H]1CCCN1C(=O)CNC(=O)[C@H](CC(C)C)NC(=O)[C@H](CC(C)C)NC(=O)[C@@H](N)Cc1ccc(O)cc1)C(=O)N[C@@H](CC(=O)O)C(=O)N[C@@H](CC(N)=O)C(=O)N[C@@H](Cc1c[nH]cn1)C(=O)N[C@@H](CCCNC(=N)N)C(=O)N[C@@H](CO)C(=O)N[C@@H](Cc1ccccc1)C(=O)N[C@@H](CO)C(=O)N[C@@H](CC(=O)O)C(=O)N[C@@H](CCCCN)C(=O)N[C@@H](Cc1c[nH]cn1)C(=O)NCC(=O)N[C@@H](CC(C)C)C(=O)N[C@H](C(N)=O)[C@@H](C)O` [r(9-29)galanin] (H-YLLGPHAIDNHRSFSDKHGLT-NH2; N-terminus and C-terminus assumed), the pIC50 in experiment [1] (setting [3]) and in experiment [2] (setting [4]) was below 6.00 throughout.

As to `CC(C)C[C@H](NC(=O)CNC(=O)[C@H](CC(N)=O)NC(=O)[C@H](CCCCN)NC(=O)[C@H](CC(=O)O)NC(=O)[C@H](CO)NC(=O)[C@H](Cc1ccccc1)NC(=O)[C@H](CO)NC(=O)[C@H](CCCNC(=N)N)NC(=O)[C@H](Cc1c[nH]cn1)NC(=O)[C@H](CC(N)=O)NC(=O)CNC(=O)[C@@H](NC(=O)[C@H](C)NC(=O)[C@H](Cc1c[nH]cn1)NC(=O)[C@@H]1CCCN1C(=O)CNC(=O)[C@H](CC(C)C)NC(=O)[C@H](CC(C)C)NC(=O)[C@H](Cc1ccc(O)cc1)NC(=O)CNC(=O)[C@H](C)NC(=O)[C@H](CO)NC(=O)[C@H](CC(N)=O)NC(=O)[C@H](CC(C)C)NC(=O)[C@@H](N)[C@@H](C)O)C(C)C)C(=O)N[C@H](C(=O)N[C@@H](CO)C(=O)O)[C@@H](C)O` [h(3-30)galanin] (H-TLNSAGYLLGPHAVGNHRSFSDKNGLTS-OH; N-terminus and C-terminus assumed), the pIC50 in experiment [1] (read-out: Rat GalR2 [clone Y107] IC50 value, 50 pM [125I]hGalanin, COS-7 membranes, 90 minutes at room temperature, average (individual values) or single experiment) was below 6.00; in experiment [2] (read-out: Rat GalR1 [cloned] IC50 value, 50 pM [125I]hGalanin, COS-7 membranes, 90 minutes at room temperature, average ± SEM, or average (individual values)) it was below 6.00.

The pIC50 is the IC50 on a negative log10 scale, so that one unit is a factor of ten.
